The nature of data set [1]: Surface activity by Kruss K12 tensiometer. In kind it is physicochemical. The note with it: 25° C. in deionized water. The procedure: The surface activity was measured using a Kruss K12 tensiometer at 25° C. in deionized water. The critical micelle concentration (CMC) and the surface tension at CMC are important properties for a surfactant. CMC indicates the minimum concentration of a surfactant that forms aggregates. […] The surface tension indicates how efficient a surfactant can reduce the surface energy of water. Lower surface tension is favorable for wetting and cleansing.

Data set [2] can be described thus: Coupling ability (hydrotrope requirement) with nonionic surfactants of different HLB. It is filed as physicochemical. As for the experimental part: Sodium xylene sulfonate (SXS) is often used as a hydrotrope to clarify cloudy formulations. […] In Table 2, the measurement of the amount of hydrotrope or surfactant needed to clear the solution was determined.
The compositions described in Table 2 are made in accordance with the following steps: • Add the water and trisodium citrate and mix until the solution is clear. Add BIO-SOFT® N25-9 slowly until the solution is homogeneous. Add BIO-SOFT® N25-3 and mix until the solution is homogeneous. If the final solution is cloudy, then continue adding the hydrotrope or surfactant and agitate until solution is clear.

Consider `CCCCCCCCCCCCOS(=O)(=O)[O-].[Na+]` [STEPANOL WA-EXTRA, Sodium Lauryl Sulfate], for which, in data set [1], the CMC is 184.8 mg/L and the “Surface Tension @CMC” value was determined as 26.3 mN/m.

Regarding “Sodium Laureth Sulfate, 3EO [STEOL CS-330]”, in data set [1], the CMC was 75 mg/L and the “Surface Tension @CMC” value stood at 30 mN/m.

As to Sodium xylene sulfonate [SXS], the Final appearance entry in data set [2] (after adding hydrotrope or surfactant to cloudy nonionic blend) is reported as “clear”. In data set [2] (amount needed to clear blend of 5% Bio-soft N25-9, 5% Bio-Soft N25-3, 1% trisodium citrate), the “hydrotrope requirement (actives)” value is recorded as 5.3 % actives.

“Sodium Laureth Sulfate, 2EO [STEOL CS-230]”: in data set [1], the CMC turned out to be 171 mg/L and the “Surface Tension @CMC” value came to 25 mN/m.

The values above are taken from patent publication US8119588B2, “Hard surface cleaner compositions of sulfonated estolides and other derivatives of fatty acids and uses thereof” (Stepan Company, priority 2009, dated 2012).
